This note sets out measurements from patent US12679822B2, “Alkenyl pyrimidine compound, preparation method therefor, and application thereof” (Hongyun Biotech Co., Ltd., priority 2020, dated 2026).

What all share (type): cell-based
Assay [1] has as its target BaF3 cell lines stably transfected with kinase EGFR L858R/T790M/C797S (Homo sapiens, UniProt P00533, T790M/C797S/L858R, cells depend on it). In words: Growth inhibition of BaF3 cell line stably transfected with kinase EGFR L858R/T790M/C797S (MTS). As to conditions: 48 h, read-out: growth inhibitory activity IC50, L858R/T790M/C797S. The method in brief: (§1)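 Growth inhibition is measured by MTS conversion (OD 490 nm) following 48 h treatment at concentrations up to 10 μM, diluted by ⅓ over 8 points. Each condition runs in duplicate with 0.1% DMSO negative and cell-free blank controls.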

Assay [2] addresses BaF3 cell lines stably transfected with kinase EGFR L858R/T790M (Homo sapiens, UniProt P00533, T790M/L858R, cells depend on it). In words: Growth inhibition of BaF3 cell line stably transfected with kinase EGFR L858R/T790M (MTS). The following applies: 48 h, read-out: growth inhibitory activity IC50, L858R/T790M. In outline:
as §1

Assay [3] deals with BaF3 cell lines stably transfected with kinase EGFR L858R (Homo sapiens, UniProt P00533, L858R, cells depend on it). As to the kind of experiment: Growth inhibition of BaF3 cell line stably transfected with kinase EGFR L858R (MTS). The following applies: 48 h, read-out: growth inhibitory activity IC50, L858R. In outline:
as §1

The target of assay [4] is BaF3 cell lines stably transfected with kinase EGFR Del/T790M/C797S (Homo sapiens, UniProt P00533, T790M/C797S, cells depend on it, form not given). As to the kind of experiment: Growth inhibition of BaF3 cell line stably transfected with kinase EGFR Del/T790M/C797S (MTS). As to conditions: 48 h, read-out: growth inhibitory activity IC50, Del/T790M/C797S. In outline: as §1

For assay [5], the target named is BaF3 cell lines stably transfected with kinase EGFR Del (Homo sapiens, UniProt P00533, cells depend on it, form not given). In words: Growth inhibition of BaF3 cell line stably transfected with kinase EGFR Del (MTS). The following applies: 48 h, read-out: growth inhibitory activity IC50, Del. In outline: as §1
Chain of BaF3 cell lines stably transfected with kinase EGFR Del (P00533 with tags, fused parts or gaps DEL746-750): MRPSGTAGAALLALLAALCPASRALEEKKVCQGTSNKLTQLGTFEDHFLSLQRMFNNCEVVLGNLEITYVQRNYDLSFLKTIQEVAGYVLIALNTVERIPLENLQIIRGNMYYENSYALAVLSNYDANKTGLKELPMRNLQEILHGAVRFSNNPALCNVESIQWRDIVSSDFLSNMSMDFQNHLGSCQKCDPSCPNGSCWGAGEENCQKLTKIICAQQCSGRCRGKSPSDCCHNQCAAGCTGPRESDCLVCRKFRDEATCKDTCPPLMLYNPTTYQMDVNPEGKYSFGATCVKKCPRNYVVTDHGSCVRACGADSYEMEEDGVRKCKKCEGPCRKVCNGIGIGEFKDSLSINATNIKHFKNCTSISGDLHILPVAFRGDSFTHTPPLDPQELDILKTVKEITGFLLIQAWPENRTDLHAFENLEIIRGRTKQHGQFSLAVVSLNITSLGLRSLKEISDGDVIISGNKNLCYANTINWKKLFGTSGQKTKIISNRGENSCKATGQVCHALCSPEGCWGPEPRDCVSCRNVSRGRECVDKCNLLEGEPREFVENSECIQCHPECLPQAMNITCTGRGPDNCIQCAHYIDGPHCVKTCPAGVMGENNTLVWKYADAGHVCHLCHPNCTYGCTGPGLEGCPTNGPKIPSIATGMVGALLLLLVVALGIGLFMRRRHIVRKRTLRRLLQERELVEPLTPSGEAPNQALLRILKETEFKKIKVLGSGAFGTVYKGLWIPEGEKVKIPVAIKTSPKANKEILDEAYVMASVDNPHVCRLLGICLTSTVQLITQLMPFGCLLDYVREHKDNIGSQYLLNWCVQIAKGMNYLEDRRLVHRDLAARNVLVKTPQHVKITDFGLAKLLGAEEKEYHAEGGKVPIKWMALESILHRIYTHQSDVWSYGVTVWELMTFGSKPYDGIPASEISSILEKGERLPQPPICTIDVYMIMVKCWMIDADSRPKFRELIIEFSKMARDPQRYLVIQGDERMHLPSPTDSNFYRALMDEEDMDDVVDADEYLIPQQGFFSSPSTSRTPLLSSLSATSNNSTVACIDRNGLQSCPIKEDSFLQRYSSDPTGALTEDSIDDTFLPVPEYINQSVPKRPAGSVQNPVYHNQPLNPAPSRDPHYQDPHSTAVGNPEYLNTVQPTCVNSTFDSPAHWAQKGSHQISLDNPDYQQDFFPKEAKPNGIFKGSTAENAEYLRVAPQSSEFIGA
For assay [6], the target named is BaF3 cell lines stably transfected with kinase EGFR Del/T790M (Homo sapiens, UniProt P00533, T790M, cells depend on it, form not given). As to the kind of experiment: Growth inhibition of BaF3 cell line stably transfected with kinase EGFR Del/T790M (MTS). As to conditions: 48 h, read-out: growth inhibitory activity IC50, Del/T790M. The method in brief: as §1
Chain of BaF3 cell lines stably transfected with kinase EGFR Del/T790M (P00533 with tags, fused parts or gaps DEL746-750/T790M, form open): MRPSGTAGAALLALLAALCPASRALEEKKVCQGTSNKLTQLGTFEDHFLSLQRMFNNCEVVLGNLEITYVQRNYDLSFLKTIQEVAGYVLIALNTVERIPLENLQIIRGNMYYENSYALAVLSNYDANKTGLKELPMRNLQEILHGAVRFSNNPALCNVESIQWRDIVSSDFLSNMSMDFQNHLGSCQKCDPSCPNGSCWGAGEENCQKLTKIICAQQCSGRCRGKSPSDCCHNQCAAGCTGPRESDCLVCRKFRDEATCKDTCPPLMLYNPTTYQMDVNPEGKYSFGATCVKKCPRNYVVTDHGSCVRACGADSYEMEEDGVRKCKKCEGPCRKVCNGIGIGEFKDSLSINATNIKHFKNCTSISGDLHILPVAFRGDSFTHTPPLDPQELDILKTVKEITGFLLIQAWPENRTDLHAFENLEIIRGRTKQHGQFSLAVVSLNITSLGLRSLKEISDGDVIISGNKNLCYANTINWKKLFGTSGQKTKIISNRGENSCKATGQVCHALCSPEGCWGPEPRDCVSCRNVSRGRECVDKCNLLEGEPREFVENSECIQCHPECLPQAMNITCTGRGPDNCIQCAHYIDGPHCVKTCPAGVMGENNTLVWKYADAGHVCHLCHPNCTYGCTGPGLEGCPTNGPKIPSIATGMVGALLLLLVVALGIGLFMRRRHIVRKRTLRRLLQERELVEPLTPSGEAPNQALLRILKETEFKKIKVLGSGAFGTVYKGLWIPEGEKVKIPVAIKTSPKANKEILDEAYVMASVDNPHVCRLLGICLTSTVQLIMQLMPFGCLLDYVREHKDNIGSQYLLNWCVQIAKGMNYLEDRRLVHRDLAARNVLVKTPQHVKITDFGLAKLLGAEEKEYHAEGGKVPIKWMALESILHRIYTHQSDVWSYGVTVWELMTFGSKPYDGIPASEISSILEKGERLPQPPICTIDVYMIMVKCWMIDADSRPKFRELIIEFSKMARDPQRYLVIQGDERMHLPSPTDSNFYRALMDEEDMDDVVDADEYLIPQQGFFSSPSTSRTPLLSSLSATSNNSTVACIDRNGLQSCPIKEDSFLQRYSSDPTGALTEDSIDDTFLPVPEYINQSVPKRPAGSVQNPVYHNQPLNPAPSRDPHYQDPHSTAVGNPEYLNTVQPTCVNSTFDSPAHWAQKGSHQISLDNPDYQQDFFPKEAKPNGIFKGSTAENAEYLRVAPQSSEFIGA

Chain of BaF3 cell lines stably transfected with kinase EGFR L858R/T790M/C797S (P00533 whole entry T790M/C797S/L858R): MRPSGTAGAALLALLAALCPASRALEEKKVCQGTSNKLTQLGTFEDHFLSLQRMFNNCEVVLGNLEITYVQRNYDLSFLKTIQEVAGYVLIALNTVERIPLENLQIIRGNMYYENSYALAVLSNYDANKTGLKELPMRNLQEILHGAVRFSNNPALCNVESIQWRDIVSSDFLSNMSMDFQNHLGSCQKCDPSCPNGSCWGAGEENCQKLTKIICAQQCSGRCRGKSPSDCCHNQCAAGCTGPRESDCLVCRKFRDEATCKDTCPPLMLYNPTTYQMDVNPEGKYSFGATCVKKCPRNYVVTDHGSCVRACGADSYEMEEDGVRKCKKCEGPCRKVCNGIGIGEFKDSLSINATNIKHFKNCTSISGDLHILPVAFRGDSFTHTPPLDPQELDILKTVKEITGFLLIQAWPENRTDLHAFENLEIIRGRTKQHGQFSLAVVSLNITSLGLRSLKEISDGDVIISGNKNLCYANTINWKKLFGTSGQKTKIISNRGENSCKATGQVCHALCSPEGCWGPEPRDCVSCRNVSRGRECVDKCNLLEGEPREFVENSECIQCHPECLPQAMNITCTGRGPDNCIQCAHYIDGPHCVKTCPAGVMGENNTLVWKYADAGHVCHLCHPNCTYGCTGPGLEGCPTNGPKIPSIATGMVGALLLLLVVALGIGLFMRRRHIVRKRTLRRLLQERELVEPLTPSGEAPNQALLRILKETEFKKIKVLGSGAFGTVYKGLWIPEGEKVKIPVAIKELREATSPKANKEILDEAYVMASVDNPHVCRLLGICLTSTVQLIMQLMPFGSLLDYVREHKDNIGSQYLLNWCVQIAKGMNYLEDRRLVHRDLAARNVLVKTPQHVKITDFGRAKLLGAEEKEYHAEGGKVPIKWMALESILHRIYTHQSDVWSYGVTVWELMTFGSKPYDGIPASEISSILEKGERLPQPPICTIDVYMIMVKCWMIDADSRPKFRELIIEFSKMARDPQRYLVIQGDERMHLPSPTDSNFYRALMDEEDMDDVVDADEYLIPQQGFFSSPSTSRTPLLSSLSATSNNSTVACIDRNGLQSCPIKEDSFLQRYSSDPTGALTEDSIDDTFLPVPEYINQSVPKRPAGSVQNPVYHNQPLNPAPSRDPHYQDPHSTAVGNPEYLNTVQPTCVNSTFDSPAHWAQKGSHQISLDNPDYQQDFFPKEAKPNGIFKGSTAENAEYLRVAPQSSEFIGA
Chain of BaF3 cell lines stably transfected with kinase EGFR L858R (P00533 whole entry L858R): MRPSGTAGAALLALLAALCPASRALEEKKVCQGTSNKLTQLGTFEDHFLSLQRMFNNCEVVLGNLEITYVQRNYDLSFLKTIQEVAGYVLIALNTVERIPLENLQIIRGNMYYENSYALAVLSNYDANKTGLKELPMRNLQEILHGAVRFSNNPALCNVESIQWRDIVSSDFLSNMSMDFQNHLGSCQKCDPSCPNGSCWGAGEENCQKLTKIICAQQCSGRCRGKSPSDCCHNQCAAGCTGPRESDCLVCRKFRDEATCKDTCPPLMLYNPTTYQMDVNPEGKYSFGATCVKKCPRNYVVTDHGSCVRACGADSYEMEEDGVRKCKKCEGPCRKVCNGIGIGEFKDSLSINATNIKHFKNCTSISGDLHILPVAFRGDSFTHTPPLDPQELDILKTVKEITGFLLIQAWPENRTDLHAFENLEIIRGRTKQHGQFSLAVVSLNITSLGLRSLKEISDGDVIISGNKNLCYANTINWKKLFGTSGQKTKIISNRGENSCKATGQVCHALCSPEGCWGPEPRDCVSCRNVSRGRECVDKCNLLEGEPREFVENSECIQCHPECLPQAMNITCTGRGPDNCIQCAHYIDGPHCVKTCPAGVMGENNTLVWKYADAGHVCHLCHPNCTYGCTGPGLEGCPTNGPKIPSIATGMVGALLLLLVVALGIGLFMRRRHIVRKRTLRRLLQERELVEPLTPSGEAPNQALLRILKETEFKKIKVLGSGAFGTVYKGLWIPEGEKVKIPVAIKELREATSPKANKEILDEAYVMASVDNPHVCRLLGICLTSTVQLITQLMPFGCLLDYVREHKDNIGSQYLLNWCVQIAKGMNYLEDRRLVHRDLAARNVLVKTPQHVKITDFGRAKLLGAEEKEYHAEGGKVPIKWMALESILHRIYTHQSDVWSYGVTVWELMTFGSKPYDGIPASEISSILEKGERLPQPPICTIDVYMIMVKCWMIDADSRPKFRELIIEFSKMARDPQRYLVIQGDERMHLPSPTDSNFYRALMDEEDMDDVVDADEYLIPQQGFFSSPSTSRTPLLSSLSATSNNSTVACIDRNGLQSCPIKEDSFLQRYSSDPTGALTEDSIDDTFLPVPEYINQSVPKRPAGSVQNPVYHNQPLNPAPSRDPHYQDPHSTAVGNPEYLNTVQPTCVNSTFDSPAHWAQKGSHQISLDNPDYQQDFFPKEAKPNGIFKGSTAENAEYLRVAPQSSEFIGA

Turning to `C=Cc1cnc(Nc2cc(F)c(N3CCC(N4CCN(C)CC4)CC3)c(F)c2)nc1Nc1ccc2nccnc2c1NS(C)(=O)=O` [II-46], the GI50 was 50 to 500 nM in assay [1]; at most 50 nM in assay [2]; 50 to 500 nM in assay [3]; 50 to 500 nM in assay [4]; 50 to 500 nM in assay [5]; 50 to 500 nM in assay [6].

`C=Cc1cnc(Nc2cc(CC)c(NCCO)cc2OC)nc1Nc1ccc2nccnc2c1N(C)S(C)(=O)=O` [II-49]: the GI50 is 50 to 500 nM in assay [1]; 50 to 500 nM in assay [2]; 500 to 2500 nM in assay [3]; 50 to 500 nM in assay [4]; 500 to 2500 nM in assay [5]; 500 to 2500 nM in assay [6].

On to `C=Cc1cnc(Nc2cc(CC)c(NCCN(C)C)cc2OC)nc1Nc1ccc2nccnc2c1N(C)S(C)(=O)=O` [II-50], for which the GI50 in assay [1] was in the range of 50 to 500 nM; in assay [2], 50 to 500 nM; in assay [3], 500 to 2500 nM; in assay [4], 50 to 500 nM; in assay [5], 500 to 2500 nM; in assay [6] it was 50 to 500 nM.

As for `C=Cc1cnc(Nc2cc(CC)c(N(C)CCN(C)C)cc2OC)nc1Nc1ccc2nccnc2c1N(C)S(C)(=O)=O` [II-51], the GI50 is 50 to 500 nM in assay [1]; 50 to 500 nM in assay [2]; 500 to 2500 nM in assay [3]; 50 to 500 nM in assay [4]; 50 to 500 nM in assay [5]; 50 to 500 nM in assay [6].

Take `C=Cc1cnc(Nc2cc(CC)c(N3CCC(N4CCNCC4)CC3)cc2OC)nc1Nc1ccc2nccnc2c1N(C)S(C)(=O)=O` [II-52]: the GI50 in assay [1] was at most 50 nM; in assay [2] it was at most 50 nM; in assay [3] it was 50 to 500 nM; in assay [4] it was at most 50 nM; in assay [5] it was 50 to 500 nM; in assay [6], 50 to 500 nM.

As to `C=Cc1cnc(Nc2cc(CC)c(N3CCC(N4CCN(C)CC4)CC3)cc2OC)nc1Nc1ccc2nccnc2c1N(C)S(C)(=O)=O` [II-53], the GI50 in assay [1] is at most 50 nM; in assay [2], 50 to 500 nM; in assay [3], 50 to 500 nM; in assay [4] it was at most 50 nM; in assay [5], 50 to 500 nM; in assay [6], 50 to 500 nM.

Turning to `C=Cc1cnc(Nc2cc(CC)c(N3CCC(C4CN(C)C4)CC3)cc2OC)nc1Nc1ccc2nccnc2c1N(C)S(C)(=O)=O` [II-54], the GI50 in assay [1] is at most 50 nM; in assay [2] it was 50 to 500 nM; in assay [3], at most 50 nM; in assay [4], at most 50 nM; in assay [5], at most 50 nM; in assay [6] it was at most 50 nM.

Take `C=Cc1cnc(Nc2cc(CC)c(N3CCC4(CC3)CC(N(C)C)C4)cc2OC)nc1Nc1ccc2nccnc2c1N(C)S(C)(=O)=O` [II-55]: the GI50 in assay [1], in assay [2], in assay [3], in assay [4], in assay [5] and in assay [6] was 50 to 500 nM each time.

Consider `C=Cc1cnc(Nc2cc[nH]n2)nc1Nc1ccc2nccnc2c1N(C)S(C)(=O)=O` [II-59], for which the GI50 in assay [1] was in the range of 500 to 2500 nM; in assay [2], 500 to 2500 nM; in assay [3], 500 to 2500 nM; in assay [4], 500 to 2500 nM; in assay [5], 50 to 500 nM; in assay [6] it was 500 to 2500 nM.

Regarding `C=Cc1cnc(Nc2ccn(CC)n2)nc1Nc1ccc2nccnc2c1N(C)S(C)(=O)=O` [II-60], the GI50 in assay [1] was in the range of 50 to 500 nM; in assay [2], 500 to 2500 nM; in assay [3], 50 to 500 nM; in assay [4] it was 50 to 500 nM; in assay [5], 50 to 500 nM; in assay [6] it was 500 to 2500 nM.

Turning to `C=Cc1cnc(Nc2ccn(C(C)C)n2)nc1Nc1ccc2nccnc2c1N(C)S(C)(=O)=O` [II-61], the GI50 in assay [1] is 50 to 500 nM; in assay [2], 500 to 2500 nM; in assay [3], at most 50 nM; in assay [4], 50 to 500 nM; in assay [5] it was 500 to 2500 nM; in assay [6], 500 to 2500 nM.

Turning to `C=Cc1cnc(Nc2cc(C)n(C)n2)nc1Nc1ccc2nccnc2c1N(C)S(C)(=O)=O` [II-62], the GI50 lay in the range of 50 to 500 nM in assay [1]; 500 to 2500 nM in assay [2]; 500 to 2500 nM in assay [3]; 50 to 500 nM in assay [4]; 500 to 2500 nM in assay [5]; 500 to 2500 nM in assay [6].

Turning to `C=Cc1cnc(Nc2cc(CC)n(C)n2)nc1Nc1ccc2nccnc2c1N(C)S(C)(=O)=O` [II-63], the GI50 is 50 to 500 nM in assay [1]; 50 to 500 nM in assay [2]; 500 to 2500 nM in assay [3]; 50 to 500 nM in assay [4]; 50 to 500 nM in assay [5]; 50 to 500 nM in assay [6].

As to `C=Cc1cnc(Nc2cnn(C)c2)nc1Nc1ccc2nccnc2c1N(C)S(C)(=O)=O` [II-65], the GI50 in assay [1], in assay [2], in assay [3], in assay [4], in assay [5] and in assay [6] was 50 to 500 nM each time.

Turning to `C=Cc1cnc(Nc2cnn(CC)c2)nc1Nc1ccc2nccnc2c1N(C)S(C)(=O)=O` [II-66], the GI50 in assay [1] was 500 to 2500 nM; in assay [2], 500 to 2500 nM; in assay [3], 500 to 2500 nM; in assay [4], 50 to 500 nM; in assay [5] it was 500 to 2500 nM; in assay [6], 500 to 2500 nM.

On to `C=Cc1cnc(Nc2cn(CC)nc2C)nc1Nc1ccc2nccnc2c1N(C)S(C)(=O)=O` [II-67], for which the GI50 in assay [1], in assay [2], in assay [3], in assay [4], in assay [5] and in assay [6] was 50 to 500 nM in each case.

Turning to `C=Cc1cnc(Nc2cn(CC)nc2C)nc1Nc1ccc2nccnc2c1N(C)S(C)(=O)=O` [II-68], the GI50 in assay [1] is 50 to 500 nM; in assay [2] it was 500 to 2500 nM; in assay [3] it was 50 to 500 nM; in assay [4], 50 to 500 nM; in assay [5] it was 50 to 500 nM; in assay [6] it was 500 to 2500 nM.

On to `C=C(C)c1cnc(Nc2cc[nH]n2)nc1Nc1ccc2nccnc2c1N(C)S(C)(=O)=O` [II-69], for which the GI50 lay in the range of 50 to 500 nM in assay [1]; 50 to 500 nM in assay [2]; 50 to 500 nM in assay [3]; 500 to 2500 nM in assay [4]; 50 to 500 nM in assay [5]; 500 to 2500 nM in assay [6].

`C=C(C)c1cnc(Nc2cn[nH]c2)nc1Nc1ccc2nccnc2c1N(C)S(C)(=O)=O` [II-70]: the GI50 in assay [1] is 50 to 500 nM; in assay [2], at most 50 nM; in assay [3] it was 50 to 500 nM; in assay [4] it was at most 50 nM; in assay [5], 50 to 500 nM; in assay [6] it was 50 to 500 nM.

With `C=C(C)c1cnc(Nc2cnn(C)c2)nc1Nc1ccc2nccnc2c1N(C)S(C)(=O)=O` [II-71], the GI50 was 50 to 500 nM in assay [1]; at most 50 nM in assay [2]; 50 to 500 nM in assay [3]; at most 50 nM in assay [4]; 50 to 500 nM in assay [5]; at most 50 nM in assay [6].

On to `C=Cc1cnc(Nc2cc3c(cc2C)CCN(C)C3)nc1Nc1ccc2nccnc2c1N(C)S(C)(=O)=O` [II-72], for which the GI50 was at most 50 nM in assay [1]; 50 to 500 nM in assay [2]; 50 to 500 nM in assay [3]; 50 to 500 nM in assay [4]; 50 to 500 nM in assay [5]; 500 to 2500 nM in assay [6].

As for `C=Cc1cnc(Nc2cc3c(cc2OC)CCN(C)C3)nc1Nc1ccc2nccnc2c1N(C)S(C)(=O)=O` [II-73], the GI50 in assay [1] lay in the range of 50 to 500 nM; in assay [2], 500 to 2500 nM; in assay [3], 500 to 2500 nM; in assay [4], 500 to 2500 nM; in assay [5] it was 500 to 2500 nM; in assay [6], 500 to 2500 nM.

On to `C=Cc1cnc(Nc2cc3c(cc2F)CCN(C)C3)nc1Nc1ccc2nccnc2c1N(C)S(C)(=O)=O` [II-74], for which the GI50 was 50 to 500 nM in assay [1]; 50 to 500 nM in assay [2]; at most 50 nM in assay [3]; 50 to 500 nM in assay [4]; 50 to 500 nM in assay [5]; 50 to 500 nM in assay [6].

`C=Cc1cnc(Nc2cc3c(cc2OC(F)(F)F)CCN(C)C3)nc1Nc1ccc2nccnc2c1N(C)S(C)(=O)=O` [II-76]: the GI50 in assay [1] is 50 to 500 nM; in assay [2] it was 50 to 500 nM; in assay [3], 50 to 500 nM; in assay [4], 500 to 2500 nM; in assay [5], 50 to 500 nM; in assay [6], 500 to 2500 nM.

For `C=Cc1cnc(Nc2ccc3c(c2)CN(C)CC3)nc1Nc1ccc2nccnc2c1N(C)S(C)(=O)=O` [II-77], the GI50 is at most 50 nM in assay [1]; at most 50 nM in assay [2]; at most 50 nM in assay [3]; 50 to 500 nM in assay [4]; at most 50 nM in assay [5]; at most 50 nM in assay [6].

Regarding `C=Cc1cnc(Nc2ccc3c(c2)C(C)CN(C)CC3)nc1Nc1ccc2nccnc2c1N(C)S(C)(=O)=O` (stereo not drawn) [II-78], the GI50 in assay [1] was at most 50 nM; in assay [2], at most 50 nM; in assay [3], at most 50 nM; in assay [4], 50 to 500 nM; in assay [5], at most 50 nM; in assay [6] it was 50 to 500 nM.
